Assay results: patent publication US6593331B2, “Method for treatment of pain” (Laboratories UPSA, priority 2001, dated 2003)

Tests used:
albino rats = assay: rat hindpaw thermal escape paradigm (hindpaw withdrawal test for analgesia, acute pain); format: in vivo; details: for analgesic effect of co-administration with acetaminophen compared to either compound given alone: hydroxyazapirone 5 mg/kg + acetaminophen 300 mg/kg, ip; for hindpaw thermal escape response/latency compared to vehicle (saline+PETW): n=5-8 rats per group
From the text: To assess the thermally evoked paw-withdrawal response, a commercially available device was used. Specifics of device construction and operation have been published previously (Dirig D M, Salami A, Rathbun M L, Ozaki G T, Yaksh T L. Characterization of variables defining hindpaw withdrawal latency evoked by radiant thermal stimuli. J Neurosci Methods. Oct. 3, 1997; 76(2):183-91). This device is comprised of a glass surface on which the rats were placed individually in Plexiglas cubicles (9×22×25 cm). The surface is maintained at 30° C. by a feedback-controlled, under-glass, forced-air heating system. The thermal nociceptive stimulus originates from a projection bulb below the glass that can be manipulated in a two-dimensional axis on ball bearing slides. This apparatus allows the stimulus to be delivered separately to each hind paw with the aid of an angled mirror mounted on the stimulus source. A timer is actuated with the light source, and escape latency is defined as the time between stimulus onset and the display of a brisk paw withdrawal (detected by photodiode motion sensors that stops the timer and terminates the stimulus; cut-off time for a non-response is 20 sec which triggers automatic termination of the stimulus). In the present study, animals are placed in test boxes for 30 min acclimation and then baseline escape latency is assessed separately for each hindpaw (left and right) at −15 min. All drugs are delivered at 0 min by the intraperitoneal (i.p.) route in a volume of 3 ml/kg. The vehicle for 6-hydroxybuspirone was 0.9% sodium chloride (Saline). For 3-hydroxygepirone the vehicle was deionized H2O plus a few drops of hydrochloric acid. For acetaminophen (Sigma, A7085) the vehicle was 40% polyethylene glycol 400 (PEG-400), 10% EtOH, 15% Tween 80, and 35% deionized H2O (PETW). Acetaminophen was disolved sequentially in two parts: 1) first into a solution of 80% PEG 400+20% EtOH, and 2) then slowly added to it was an equal volume of 30% Tween 80+70% deionized H2O (sonicated as needed). Each animal received two injections at time zero. Specifically, animals were tested in one of the following 6 treatment conditions (abbreviations used in figures are shown under “Key” below):
Following drug administration, thermal escape latencies are measured at 15, 30, 60, 90 and 120 min (mean of both paws is used for statistical analysis).

mouse = mouse hot plate test (procedure of Eddy, et al.); format: in vivo; details: 6-hydroxybuspirone to acetaminophen weight ratios of 1:3, 1:10 and 1:30
[1] = hydroxyazapirone alone, 5 mg/kg ip
[2] = acetaminophen alone, 300 mg/kg ip

CC1(C)CC(=O)N(CCCCN2CCN(c3ncccn3)CC2)C(=O)C1O (centres unmarked) [3-hydroxygepirone, 4,4-Dimethyl-3-hydroxy-1-[4-[4-(2-pyrimidinyl)-1-piperazinyl]butyl]-2,6-piperidinedione]
time of peak analgesic effect post injection (albino rats; 3-hydroxygepirone alone, 5 mg/kg ip): 120 min
analgesic effect of co-administration with acetaminophen compared to either compound given alone (albino rats): analgesic enhancing effect
hindpaw thermal escape response/latency compared to vehicle (saline+PETW) (albino rats; [1]): elevated significantly above vehicle

O=C1CC2(CCCC2)C(O)C(=O)N1CCCCN1CCN(c2ncccn2)CC1 (centres unmarked) [6-hydroxybuspirone, 6-Hydroxy-8-[4-[4-(2-pyrimidinyl)-piperazinyl]-butyl]-8-azaspiro[4.5]-7,9-dione]
analgesic effect of co-administration with acetaminophen compared to either compound given alone (albino rats): analgesic enhancing effect
hindpaw thermal escape response/latency compared to vehicle (saline+PETW) (albino rats; [1]): elevated significantly above vehicle
potentiation of acetaminophen in hot plate test (mouse): potentiation of acetaminophen

CC(=O)Nc1ccc(O)cc1 [acetaminophen, reference compound]
time of peak analgesic effect post injection (albino rats; [2]): 120 min
hindpaw thermal escape response/latency compared to vehicle (saline+PETW) (albino rats; [2]): elevated significantly above vehicle
